26 compounds from patent US20240025884A1 (Dong-A ST Co., Ltd., priority 2022, published 2024) can be followed below.

Sequence of GCN2 (Q9P2K8 whole entry): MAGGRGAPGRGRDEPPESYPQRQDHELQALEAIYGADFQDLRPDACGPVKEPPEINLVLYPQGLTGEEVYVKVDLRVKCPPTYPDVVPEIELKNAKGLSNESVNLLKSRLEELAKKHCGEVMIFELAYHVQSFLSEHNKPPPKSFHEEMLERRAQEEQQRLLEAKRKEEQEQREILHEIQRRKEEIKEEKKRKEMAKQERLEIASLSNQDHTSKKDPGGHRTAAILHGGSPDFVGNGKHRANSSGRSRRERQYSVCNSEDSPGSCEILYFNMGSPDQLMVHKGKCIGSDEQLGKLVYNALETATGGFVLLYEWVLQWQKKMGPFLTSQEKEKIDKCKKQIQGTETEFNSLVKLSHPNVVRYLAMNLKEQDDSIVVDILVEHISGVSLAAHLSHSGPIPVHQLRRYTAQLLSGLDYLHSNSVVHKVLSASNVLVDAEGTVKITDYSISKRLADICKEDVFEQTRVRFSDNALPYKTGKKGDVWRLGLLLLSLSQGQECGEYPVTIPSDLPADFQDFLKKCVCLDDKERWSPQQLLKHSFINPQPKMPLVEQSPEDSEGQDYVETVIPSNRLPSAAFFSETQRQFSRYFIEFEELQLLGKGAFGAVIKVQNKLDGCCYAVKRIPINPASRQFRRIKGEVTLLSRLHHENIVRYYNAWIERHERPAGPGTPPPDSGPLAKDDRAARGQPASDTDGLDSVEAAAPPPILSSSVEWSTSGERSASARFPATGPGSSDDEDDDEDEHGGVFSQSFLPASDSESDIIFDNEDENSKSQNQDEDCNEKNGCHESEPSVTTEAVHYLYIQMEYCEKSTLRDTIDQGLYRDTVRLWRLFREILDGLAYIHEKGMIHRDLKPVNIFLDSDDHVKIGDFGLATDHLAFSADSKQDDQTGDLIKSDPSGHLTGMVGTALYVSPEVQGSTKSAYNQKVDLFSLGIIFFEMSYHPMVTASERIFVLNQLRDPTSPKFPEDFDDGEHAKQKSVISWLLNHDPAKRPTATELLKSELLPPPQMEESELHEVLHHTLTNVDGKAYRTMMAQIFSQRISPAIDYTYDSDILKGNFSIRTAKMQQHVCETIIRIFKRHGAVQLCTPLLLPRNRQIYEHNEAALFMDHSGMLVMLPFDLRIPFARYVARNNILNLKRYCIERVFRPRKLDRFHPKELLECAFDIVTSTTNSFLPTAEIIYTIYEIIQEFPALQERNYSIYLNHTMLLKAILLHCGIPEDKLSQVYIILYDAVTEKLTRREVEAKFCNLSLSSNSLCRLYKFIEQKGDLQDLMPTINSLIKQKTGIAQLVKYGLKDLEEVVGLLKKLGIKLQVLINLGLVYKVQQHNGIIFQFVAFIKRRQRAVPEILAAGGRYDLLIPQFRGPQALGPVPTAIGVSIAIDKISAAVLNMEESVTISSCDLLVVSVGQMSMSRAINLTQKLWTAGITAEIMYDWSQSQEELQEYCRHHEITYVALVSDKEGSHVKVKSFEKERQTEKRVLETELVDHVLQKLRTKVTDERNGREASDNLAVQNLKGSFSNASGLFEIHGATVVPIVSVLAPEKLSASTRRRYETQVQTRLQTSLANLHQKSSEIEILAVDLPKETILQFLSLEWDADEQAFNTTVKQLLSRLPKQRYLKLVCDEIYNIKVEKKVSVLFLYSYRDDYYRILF

The target of the assay is GCN2 (Homo sapiens (Human), UniProt Q9P2K8). Put plainly: GCN2 Biochemical Assay (TR-FRET, GFP-eIF2S1 substrate phosphorylation). As to conditions: read-out: IC50 (GCN2 Inhibitory Activity). The method, boiled down:
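TR-FRET readout (Ex 340, Em 490/520 nm) after 2–3 h with Tb-labelled phospho-eIF2S1 antibody in stop mix, following a 70 min room-temperature kinase step. Reaction: in-house GCN2, GFP-eIF2S1, ATP, tRNA in Tris pH 7.5 (2× stocks 1.6 nM, 50 nM, 0.2 mM); compounds tested at 10 concentrations, with a phospho-substrate artifact counter-plate.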
On the technique in general: TR-FRET usually uses a lanthanide donor and a delayed reading to cut background.
As for `Cc1cnc(Nc2cc(C)n(C)n2)nc1-c1c[nH]c2c(N3Cc4c(NC(=O)N5CCNC5=O)cccc4C3=O)cccc12` [Example 313, N-(2-(3-(2-((1,5-dimethyl-1H-pyrazol-3-yl)amino)-5-methylpyrimidin-4-yl)-1H-indol-7-yl)-1-oxoisoindolin-4-yl)-2-oxoimidazolidine-1-carboxamide], the IC50 was less than 10 nM.

In the case of `Cc1cnc(Nc2cc(C)n(C)n2)nc1-c1c[nH]c2c(N3Cc4ccc(-c5ccncc5)cc4C3=O)cccc12` [Example 380, 2-(3-(2-((1,5-dimethyl-1H-pyrazol-3-yl)amino)-5-methylpyrimidin-4-yl)-1H-indol-7-yl)-6-(pyridin-4-yl)isoindolin-1-one], the IC50 was less than 10 nM.

Take `Cc1cnc(Nc2cc(C)n(C)n2)nc1-c1c[nH]c2c(NC(=O)CN3CC[C@H](Oc4nc(NC5CC5)ncc4F)C3)cccc12` [Example 227, (S)-2-(3-((2-(cyclopropylamino)-5-fluoropyrimidin-4-yl)oxy)pyrrolidin-1-yl)-N-(3-(2-((1,5-dimethyl-1H-pyrazol-3-yl)amino)-5-methylpyrimidin-4-yl)-1H-indol-7-yl)acetamide]: the IC50 was less than 10 nM.

In the case of `Cc1cnc(Nc2cc(C)n(C)n2)nc1-c1c[nH]c2c(N3C(=O)c4cccnc4C3=O)cccc12` [Example 265, 6-(3-(2-((1,5-dimethyl-1H-pyrazol-3-yl)amino)-5-methylpyrimidin-4-yl)-1H-indol-7-yl)-5H-pyrrolo[3,4-b]pyridine-5,7(6H)-dione], the IC50 is less than 10 nM.

As to `Cc1cnc(Nc2cc(C)n(C)n2)nc1-c1c[nH]c2c(N3Cc4c(cccc4-c4cncc(N)c4)C3=O)cccc12` [Example 419, 4-(5-aminopyridin-3-yl)-2-(3-(2-((1,5-dimethyl-1H-pyrazol-3-yl)amino)-5-methylpyrimidin-4-yl)-1H-indol-7-yl)isoindolin-1-one], the IC50 is less than 10 nM.

Turning to `CNC(=O)c1ccnc(O[C@H]2CCN(CC(=O)Nc3cccc4c(-c5nc(Nc6cc(C)n(C)n6)ncc5C)c[nH]c34)C2)n1` [Example 130, (S)-2-((1-(2-((3-(2-((1,5-dimethyl-1H-pyrazol-3-yl)amino)-5-methylpyrimidin-4-yl)-1H-indol-7-yl)amino)-2-oxoethyl)pyrrolidin-3-yl)oxy)-N-methylpyrimidine-4-carboxamide], the IC50 lay within 10 to 100 nM.

In the case of `CCNc1nc(O[C@H]2CCN(CC(=O)Nc3cccc4c(-c5nc(Nc6cc(C)n(C)n6)ncc5C)c[nH]c34)C2)ncc1F` [Example 178, (S)-N-(3-(2-((1,5-dimethyl-1H-pyrazol-3-yl)amino)-5-methylpyrimidin-4-yl)-1H-indol-7-yl)-2-(3-((4-(ethylamino)-5-fluoropyrimidin-2-yl)oxy)pyrrolidin-1-yl)acetamide], the IC50 was less than 10 nM.

For `Cc1cnc(Nc2cc(C)n(C)n2)nc1-c1c[nH]c2c(NC(=O)CN3CC[C@H](Oc4ccnc(NCc5ccccc5)n4)C3)cccc12` [Example 214, (S)-2-(3-((2-(benzylamino)pyrimidin-4-yl)oxy)pyrrolidin-1-yl)-N-(3-(2-((1,5-dimethyl-1H-pyrazol-3-yl)amino)-5-methylpyrimidin-4-yl)-1H-indol-7-yl)acetamide], the IC50 was less than 10 nM.

On to `Cc1cnc(Nc2cc(C)n(C)n2)nc1-c1c[nH]c2c(N3Cc4c(cccc4-c4ccncc4CO)C3=O)cccc12` [Example 471], for which the IC50 was less than 10 nM.

Consider `CNc1cc(-c2ccc(F)c3c2CN(c2cccc4c(-c5nc(Nc6cc(C)n(C)n6)ncc5C)c[nH]c24)C3=O)ccn1` [Example 482, 2-(3-(2-((1,5-dimethyl-1H-pyrazol-3-yl)amino)-5-methylpyrimidin-4-yl)-1H-indol-7-yl)-7-fluoro-4-(2-(methylamino)pyridin-4-yl)isoindolin-1-one], for which the IC50 was less than 10 nM.

As to `Cc1cnc(Nc2cc(C)n(C)n2)nc1-c1c[nH]c2c(NC(=O)C(=O)N3CC[C@H](Oc4ccncc4)C3)cccc12` [Example 18, (S)-N-(3-(2-((1,5-dimethyl-1H-pyrazol-3-yl)amino)-5-methylpyrimidin-4-yl)-1H-indol-7-yl)-2-ox0-2-(3-(pyridin-4-yloxy)pyrrolidin-1-yl)acetamide], the IC50 lay within 10 to 100 nM.

Regarding `Cc1cnc(Nc2cc(C)n(C)n2)nc1-c1c[nH]c2c(N3Cc4c(cccc4-c4ccncc4F)C3=O)cccc12` [Example 400, 2-(3-(2-((1,5-dimethyl-1H-pyrazol-3-yl)amino)-5-methylpyrimidin-4-yl)-1H-indol-7-yl)-4-(3-fluoropyridin-4-yl)isoindolin-1-one], the IC50 was less than 10 nM.

As to `Cc1cnc(Nc2cc(C)n(C)n2)nc1-c1c[nH]c2c(N3Cc4c(cccc4[N+](=O)[O-])C3=O)cccc12` [Example 271, 2-(3-(2-((1,5-dimethyl-1H-pyrazol-3-yl)amino)-5-methylpyrimidin-4-yl)-1H-indol-7-yl)-4-nitroisoindolin-1-one], the IC50 was less than 10 nM.

`Cc1cnc(Nc2cc(C)n(C)n2)nc1-c1c[nH]c2c(NC(=O)CN3CC[C@H](Oc4ccncn4)C3)cccc12` [Example 78, (S)-N-(3-(2-((1,5-dimethyl-1H-pyrazol-3-yl)amino)-5-methylpyrimidin-4-yl)-1H-indol-7-yl)-2-(3-(pyrimidin-4-yloxy)pyrrolidin-1-yl)acetamide]: the half-maximal inhibitory concentration (IC50) was less than 10 nM.

On to `Cc1cnc(Nc2cc(C)n(C)n2)nc1-c1c[nH]c2c(NC(=O)CN3CC[C@H](Oc4ncc(F)c(N5CCN(C)CC5)n4)C3)cccc12` [Example 190, (S)-N-(3-(2-((1,5-dimethyl-1H-pyrazol-3-yl)amino)-5-methylpyrimidin-4-yl)-1H-indol-7-yl)-2-(3-((5-fluoro-4-(4-methylpiperazin-1-yl)pyrimidin-2-yl)oxy)pyrrolidin-1-yl)acetamide], for which the 50% inhibitory concentration (IC50) is less than 10 nM.

For the compound `CCCNc1nccc(O[C@H]2CCN(CC(=O)Nc3cccc4c(-c5nc(Nc6cc(C)n(C)n6)ncc5C)c[nH]c34)C2)n1` [Example 204, (S)-N-(3-(2-((1,5-dimethyl-1H-pyrazol-3-yl)amino)-5-methylpyrimidin-4-yl)-1H-indol-7-yl)-2-(3-((2-(propylamino)pyrimidin-4-yl)oxy)pyrrolidin-1-yl)acetamide], the IC50 was less than 10 nM.

On to `Cc1cnc(Nc2cc(C)n(C)n2)nc1-c1c[nH]c2c(N3Cc4cc(Br)cnc4C3=O)cccc12` [Example 285, 3-bromo-6-(3-(2-((1,5-dimethyl-1H-pyrazol-3-yl)amino)-5-methylpyrimidin-4-yl)-1H-indol-7-yl)-5,6-dihydro-7H-pyrrolo[3,4-b]pyridin-7-one], for which the IC50 was less than 10 nM.

Consider `Cc1cnc(Nc2cc(C)n(C)n2)nc1-c1c[nH]c2c(N3Cc4c(cncc4C4=CCNCC4)C3=O)cccc12` [Example 499, 2-(3-(2-((1,5-dimethyl-1H-pyrazol-3-yl)amino)-5-methylpyrimidin-4-yl)-1H-indol-7-yl)-7-(1,2,3,6-tetrahydropyridin-4-yl)-1,2-dihydro-3H-pyrrolo[3,4-c]pyridin-3-one], for which the half-inhibitory concentration (IC50) is less than 10 nM.

With `CCN(CC)c1cccc(O[C@H]2CCN(CC(=O)Nc3cccc4c(-c5nc(Nc6cc(C)n(C)n6)ncc5C)c[nH]c34)C2)c1` [Example 88], the IC50 lay in the range of 100 to 1000 nM.

For the compound `Cc1cnc(Nc2cc(C)n(C)n2)nc1-c1c[nH]c2c(NC(=O)CN3CC[C@H](Oc4cc(N5CC[C@@H](O)C5)ncn4)C3)cccc12` [Example 160, N-(3-(2-((1,5-dimethyl-1H-pyrazol-3-yl)amino)-5-methylpyrimidin-4-yl)-1H-indol-7-yl)-2-((S)-3-((6-((R)-3-hydroxypyrrolidin-1-yl)pyrimidin-4-yl)oxy)pyrrolidin-1-yl)acetamide], the IC50 was less than 10 nM.

Take `Cc1cnc(Nc2cc(C)n(C)n2)nc1-c1c[nH]c2c(NC(=O)CN3CC[C@H](Oc4cc(N5CCCC5)nc(N)n4)C3)cccc12` [Example 167, (S)-2-(3-((2-amino-6-(pyrrolidin-1-yl)pyrimidin-4-yl)oxy)pyrrolidin-1-yl)-N-(3-(2-((1,5-dimethyl-1H-pyrazol-3-yl)amino)-5-methylpyrimidin-4-yl)-1H-indol-7-yl)acetamide]: the IC50 was in the range of 10 to 100 nM.

Turning to `Cc1cnc(Nc2cc(C)n(C)n2)nc1-c1c[nH]c2c(N3Cc4cccc([N+](=O)[O-])c4C3=O)cccc12` [Example 274, 2-(3-(2-((1,5-dimethyl-1H-pyrazol-3-yl)amino)-5-methylpyrimidin-4-yl)-1H-indol-7-yl)-7-nitroisoindolin-1-one], the IC50 is less than 10 nM.

As to `CNc1ccnc(O[C@H]2CCN(CC(=O)Nc3cccc4c(-c5nc(Nc6cc(C)n(C)n6)ncc5C)c[nH]c34)C2)n1` [Example 169, (S)-N-(3-(2-((1,5-dimethyl-1H-pyrazol-3-yl)amino)-5-methylpyrimidin-4-yl)-1H-indol-7-yl)-2-(3-((4-(methylamino)pyrimidin-2-yl)oxy)pyrrolidin-1-yl)acetamide], the IC50 was less than 10 nM.

With `Cc1cnc(Nc2cc(C)n(C)n2)nc1-c1c[nH]c2c(NC(=O)CN3CC[C@H](Oc4cc(C(=O)NC5CC5)on4)C3)cccc12` [Example 124, (S)-N-cyclopropyl-3-((1-(2-((3-(2-((1,5-dimethyl-1H-pyrazol-3-yl)amino)-5-methylpyrimidin-4-yl)-1H-indol-7-yl)amino)-2-oxoethyl)pyrrolidin-3-yl)oxy)isoxazole-5-carboxamide], the IC50 was less than 10 nM.

Consider `Cc1cnc(Nc2cc(C)n(C)n2)nc1-c1c[nH]c2c(N3Cc4cc(C5=CCNCC5)cnc4C3=O)cccc12` [Example 498, 6-(3-(2-((1,5-dimethyl-1H-pyrazol-3-yl)amino)-5-methylpyrimidin-4-yl)-1H-indol-7-yl)-3-(1,2,3,6-tetrahydropyridin-4-yl)-5,6-dihydro-7H-pyrrolo[3,4-b]pyridin-7-one], for which the IC50 was less than 10 nM.

Regarding `Cc1cnc(Nc2cc(C)n(C)n2)nc1-c1c[nH]c2c(N3Cc4cccc(NS(=O)(=O)c5ccccc5)c4C3=O)cccc12` [Example 340, N-(2-(3-(2-((1,5-dimethyl-1H-pyrazol-3-yl)amino)-5-methylpyrimidin-4-yl)-1H-indol-7-yl)-3-oxoisoindolin-4-yl)benzenesulfonamide], the IC50 lay in the range of 100 to 1000 nM.

As a reminder, the IC50 is the point on the concentration scale where inhibition reaches its midpoint.
